Test results: ChEMBL document CHEMBL5500325, “Identification of ethyl-6-bromo-2((phenylthio)methyl)imidazo[1,2-a]pyridine-3-carboxylate as a narrow spectrum inhibitor of Streptococcus pneumoniae and its FtsZ” (Eur J Med Chem, 2024)
In brackets after ≈: the same amount, converted by molar mass. Activity calls are given as the source filed them. The calls are words filed in the database; no cut-off is given here.

Key:
[1] = test system: Bacillus subtilis; assay: Antibacterial activity against Bacillus subtilis 168 assessed as inhibition of bacterial growth at 10 uM incubated for 6 hrs by agar plate assay; assay type: functional, organism-based
[2] = test system: Streptococcus pneumoniae; assay: Antibacterial activity against Streptococcus pneumoniae TIGR4 assessed as inhibition of bacterial growth at 10 uM incubated for 24 hrs by agar plate assay; assay type: functional
[3] = test system: Acinetobacter baumannii; assay: Antibacterial activity against Acinetobacter baumannii ATCC 19606 assessed as inhibition of bacterial growth incubated for 18 hrs by microbroth dilution method; assay type: functional
[4] = test system: Streptococcus pneumoniae; assay: Induction of DNA nucleoid segregation in Streptococcus pneumoniae at 40 uM incubated for 30 mins by DAPI staining based immunostaining analysis; assay type: functional, organism-based
[5] = biological target: T1, Cell division protein FtsZ (Streptococcus pneumoniae serotype 2 (strain D39 / NCTC 7466)) (UniProt A0A0H2ZNE0); assay: Inhibition of Streptococcus pneumoniae FtsZ polymerization at 5 to 40 uM pretreated for 20 mins followed by GTP addition and measured for 20 mins by tryptophan fluorescence based spectrofluorometric analysis; conditions: dose 5-40 µM, time 40.0 min
T1 sequence (whole entry): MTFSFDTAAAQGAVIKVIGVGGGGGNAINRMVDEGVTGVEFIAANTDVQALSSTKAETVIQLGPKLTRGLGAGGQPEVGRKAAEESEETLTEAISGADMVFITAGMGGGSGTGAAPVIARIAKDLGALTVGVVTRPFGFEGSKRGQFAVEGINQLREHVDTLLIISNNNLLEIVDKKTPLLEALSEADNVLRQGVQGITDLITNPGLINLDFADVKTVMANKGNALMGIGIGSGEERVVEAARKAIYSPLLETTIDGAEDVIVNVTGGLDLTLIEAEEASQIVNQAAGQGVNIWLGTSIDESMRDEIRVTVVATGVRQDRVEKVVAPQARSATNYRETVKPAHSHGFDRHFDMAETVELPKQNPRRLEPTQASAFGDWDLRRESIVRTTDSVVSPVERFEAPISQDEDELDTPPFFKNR

[6] = test system: Klebsiella pneumoniae; assay: Antibacterial activity against Klebsiella pneumoniae assessed as inhibition of bacterial growth at 10 to 20 uM incubated for 4 hrs; assay type: functional, organism-based; conditions: dose 10-20 µM
[7] = test system: Streptococcus pyogenes; assay: Antibacterial activity against Streptococcus pyogenes assessed as inhibition of bacterial growth at 10 to 20 uM incubated for 20 hrs; assay type: functional, organism-based; conditions: dose 10-20 µM
[8] = Antiproliferative activity against human HeLa cells assessed as inhibition of cell growth incubated for 24 hrs by SRB assay; assay type: toxicity, cell-based
[9] = biological target: T1, Cell division protein FtsZ (Streptococcus pneumoniae serotype 2 (strain D39 / NCTC 7466)); assay: Inhibition of Streptococcus pneumoniae FtsZ polymerization at 20 uM preincubated for 20 mins followed by GTP addition for 3 mins by atomic force microscopy; conditions: time 23.0 min
[10] = test system: Streptococcus pneumoniae; assay: Antibacterial activity against Streptococcus pneumoniae TIGR4 assessed as inhibition of bacterial proliferation incubated for 24 hrs by CLSI based analysis; assay type: functional, organism-based
[11] = biological target: T1, Cell division protein FtsZ (Streptococcus pneumoniae serotype 2 (strain D39 / NCTC 7466)); assay: Inhibition of FtsZ in Streptococcus pneumoniae assessed as propotion of cells with intact Z-ring at 40 uM incubated for 30 mins by DAPI staining based immunostaining analysis (reference value: 92%); set-up: scale not given: the % may be the effect or the level left
[12] = biological target: T1, Cell division protein FtsZ (Streptococcus pneumoniae serotype 2 (strain D39 / NCTC 7466)); assay: Inhibition of Streptococcus pneumoniae FtsZ assessed as inhibition of rate of polymerization at 40 uM pretreated for 20 mins followed by GTP addition and measured for 20 mins by tryptophan fluorescence based spectrofluorometric analysis; conditions: time 40.0 min
[13] = biological target: T1, Cell division protein FtsZ (Streptococcus pneumoniae serotype 2 (strain D39 / NCTC 7466)); assay: Inhibition of Streptococcus pneumoniae FtsZ assessed as time required to start of polymerization at 40 uM pretreated for 20 mins followed by GTP addition and measured for 20 mins by tryptophan fluorescence based spectrofluorometric analysis (reference value: 37 +/-18 sec); conditions: time 40.0 min
[14] = biological target: T1, Cell division protein FtsZ (Streptococcus pneumoniae serotype 2 (strain D39 / NCTC 7466)); assay: Inhibition of Streptococcus pneumoniae FtsZ polymerization assessed as very short and thin polymers at 40 uM preincubated for 20 mins followed by GTP addition for 200 secs and later incubated on copper-TEM grid for 5 mins by transmission electron microscopy; conditions: time 1700.0 sec
[15] = test system: Streptococcus pneumoniae; assay: Induction of membrane disruption in Streptococcus pneumoniae TIGR4 at 40 uM incubated for 30 mins by FM4-64 live cell staining based confocal microscopy; assay type: functional, organism-based
[16] = test system: Streptococcus pneumoniae; assay: Bactericidal activity against Streptococcus pneumoniae TIGR4 assessed as induction of cell death by measuring proportion of PI-stained bacteria at 40 ug/ml incubated for 12 hrs by propidium iodide staining based confocal microscopy (reference value: 2%); assay type: functional; conditions: dose 40 µg/ml
[17] = biological target: T1, Cell division protein FtsZ (Streptococcus pneumoniae serotype 2 (strain D39 / NCTC 7466)); assay: Inhibition of Streptococcus pneumoniae FtsZ assessed as inhibition of extent of polymerization at 30 uM pretreated for 20 mins followed by GTP addition and measured for 20 mins by light scattering based analysis; conditions: time 40.0 min
[18] = test system: Staphylococcus aureus; assay: Antibacterial activity against Staphylococcus aureus assessed as inhibition of bacterial growth at 10 to 20 uM incubated for 4 hrs; assay type: functional, organism-based; conditions: dose 10-20 µM
[19] = biological target: T1, Cell division protein FtsZ (Streptococcus pneumoniae serotype 2 (strain D39 / NCTC 7466)); assay: Inhibition of Streptococcus pneumoniae FtsZ assessed as inhibition of extent of polymerization at 40 uM pretreated for 20 mins followed by GTP addition and measured for 20 mins by light scattering based analysis; conditions: time 40.0 min
[20] = test system: Vibrio cholerae; assay: Antibacterial activity against Vibrio cholerae assessed as inhibition of bacterial growth at 10 to 20 uM incubated for 4 hrs; assay type: functional, organism-based; conditions: dose 10-20 µM
[21] = biological target: T1, Cell division protein FtsZ (Streptococcus pneumoniae serotype 2 (strain D39 / NCTC 7466)); assay: Inhibition of Streptococcus pneumoniae FtsZ assessed as increase in GTPase activity by measuring increase in inorganic phosphate release upto 20 uM pretreated for 20 mins followed by GTP addition and measured after 10 mins by malachite green assay based UV-Vis spectrophometry; conditions: time 30.0 min
[22] = test system: Streptococcus pneumoniae; assay: Bactericidal activity against Streptococcus pneumoniae TIGR4 assessed as induction of cell death by measuring proportion of PI-stained bacteria at 20 ug/ml incubated for 12 hrs by propidium iodide staining based confocal microscopy (reference value: 2%); assay type: functional; conditions: dose 20 µg/ml
[23] = biological target: T1, Cell division protein FtsZ (Streptococcus pneumoniae serotype 2 (strain D39 / NCTC 7466)); assay: Inhibition of Streptococcus pneumoniae FtsZ assessed as rate of polymerization at 40 uM pretreated for 20 mins followed by GTP addition and measured for 20 mins by tryptophan fluorescence based spectrofluorometric analysis (reference value: 0.19 +/-0.02 au/s); conditions: time 40.0 min
[24] = test system: Bacillus subtilis; assay: Antibacterial activity against Bacillus subtilis 168 assessed as inhibition of bacterial growth at 10 to 20 uM incubated for 4 hrs; assay type: functional, organism-based; conditions: dose 10-20 µM
[25] = biological target: T1, Cell division protein FtsZ (Streptococcus pneumoniae serotype 2 (strain D39 / NCTC 7466)); assay: Inhibition of Streptococcus pneumoniae FtsZ polymerization assessed as length of polymers at 40 uM preincubated for 20 mins followed by GTP addition for 200 secs and later incubated on copper-TEM grid for 5 mins by transmission electron microscopy (reference value: 61 +/-26 nm); conditions: time 1700.0 sec
[26] = test system: Escherichia coli; assay: Antibacterial activity against Escherichia coli K12 assessed as inhibition of bacterial growth at 10 to 20 uM incubated for 4 hrs; assay type: functional, organism-based; conditions: dose 10-20 µM
[27] = biological target: T1, Cell division protein FtsZ (Streptococcus pneumoniae serotype 2 (strain D39 / NCTC 7466)); assay: Inhibition of FtsZ in Streptococcus pneumoniae assessed as improper distribution of FtsZ throughout the cells at 40 uM incubated for 30 mins by DAPI staining based immunostaining analysis
[28] = test system: Streptococcus pneumoniae; assay: Antibacterial activity against Streptococcus pneumoniae TIGR4 assessed as inhibition of bacterial growth incubated for 24 hrs by agar dilution method; assay type: functional
[29] = test system: Bacillus subtilis; assay: Antibacterial activity against Bacillus subtilis 168 assessed as inhibition of bacterial growth incubated for 6 hrs by agar dilution method; assay type: functional
[30] = biological target: T1, Cell division protein FtsZ (Streptococcus pneumoniae serotype 2 (strain D39 / NCTC 7466)); assay: Inhibition of Streptococcus pneumoniae FtsZ assessed as increase in GTPase activity by measuring increase in inorganic phosphate release at >20 uM pretreated for 20 mins followed by GTP addition and measured after 10 mins by malachite green assay based UV-Vis spectrophometry; conditions: time 30.0 min
[31] = test system: Staphylococcus aureus; assay: Antibacterial activity against Staphylococcus aureus; assay type: functional
[32] = test system: Bacillus subtilis; assay: Antibacterial activity against Bacillus subtilis; assay type: functional
[33] = test system: Mycobacterium tuberculosis; assay: Antibacterial activity against Mycobacterium tuberculosis H37; assay type: functional
[34] = test system: Staphylococcus aureus; assay: Antibacterial activity against Staphylococcus aureus assessed as inhibition of bacterial growth incubated for 16 to 24 hrs by CLSI based microdilution assay; assay type: functional; conditions: time 16-24 hrs

For `CCOC(=O)c1c(CSc2ccncc2)nc2ccc(Br)cn12`, the Activity [1] was “inactive” and the inhibition at 10 µM [2] was 31%.

In the case of `CCOC(=O)c1c(CSc2ccc(Cl)cc2)nc2ccc(Br)cn12`, the Activity [1] is reported as “inactive” and the inhibition at 10 µM [2] is reported as 17%.

With `CCOC(=O)c1c(CSc2ccc([N+](=O)[O-])cc2)nc2ccc(Br)cn12` the Activity [1] was “inactive” and the inhibition at 10 µM [2] was 0%.

For `CCOC(=O)c1c(CSc2ccccc2)nc2ccc(Br)cn12`, the Activity [1] was “inactive” and the inhibition at 10 µM [2] was 25%.

For `CC1=CC(=O)c2ccccc2C1=O` [MENADIONE], the inhibition at 10 µM [2] was 100%.

`Cc1nc2ccccc2n1C(=O)/C=C/c1ccc(Br)cc1` showed an MIC [3] of 32 µg/mL (≈ 93.8 µM).

For `CCOC(=O)c1c(CSc2ccc(OC)cc2)nc2ccc(Br)cn12`, the Activity [4] was “inactive”, the inhibition [5] was “Active” and the Activity [6] was “inactive”. For the same compound, the Activity [7] was “Active”, the IC50 at 24 h [8] was 41 µM and the inhibition [9] was “Active”. It also gave an IC50 ([10]; TIGR4, 24 h) of 17 µM, an MIC ([10]; TIGR4, time 24 hrs) of 20 µg/mL (≈ 47.5 µM) and an Activity [11] of 46%. The inhibition [12] was 75%, the TIME [13] was 0.0644 h and the inhibition [14] was “Active”. For the same compound, the Activity [15] was “inactive”, the Activity [16] was 28% and the inhibition [17] was 34%. For the same compound, the Activity [18] was “inactive”, the inhibition [19] was 59% and the Activity [20] was “inactive”. The inhibition [21] was “Active”, the Activity [22] was 17% and the Activity [1] was “inactive”. For the same compound, the INH [23] was 0.05 AU/sec, the Activity [24] was “inactive” and the Activity [25] was 13 nm. For the same compound, the Activity [26] was “inactive”, the inhibition at 10 µM [2] was 67% and the inhibition [27] was 54%.

In the case of `CCOC(=O)c1c(CSc2nc3ccccc3[nH]2)nc2ccc(Br)cn12`, the Activity [1] is reported as “inactive” and the inhibition at 10 µM [2] is reported as 37%.

With `O=C(CCc1ccc(O)cc1)C1=C(O)C(Cc2ccc(O)cc2)CCC1` (stereo unspecified) the MIC [28] was roughly 0.7 µg/mL (≈ 1.99 µM) and the MIC [29] was roughly 3.8 µg/mL (≈ 10.8 µM).

With `CCOC(=O)c1c(CSc2ccc3ccccc3c2)nc2ccc(Br)cn12` the inhibition [5] was “Active”, the inhibition [30] was “inactive” and the Activity [1] was “inactive”. The inhibition at 10 µM [2] was 54%.

`NC(=O)c1c(F)ccc(OCc2nc3cc(Cl)cnc3s2)c1F` gave an MIC [31] of 0.5 µg/mL (≈ 1.41 µM) and an MIC [32] of 1 µg/mL (≈ 2.81 µM).

In the case of `CCOC(=O)c1c(CSc2ccccc2OC)nc2ccc(Br)cn12`, the Activity [1] is reported as “inactive” and the inhibition at 10 µM [2] is reported as 17%.

With `CCOC(=O)c1c(CSc2ccc(Br)cc2)nc2ccc(Br)cn12` the Activity [1] was “inactive” and the inhibition at 10 µM [2] was 0%.

`CC(NC(=O)c1nc2ccccc2n1-c1ccccc1)c1ccccc1` (stereo unspecified) showed an MIC [33] of 0.78 µg/mL (≈ 2.28 µM) and an MIC [32] of 1.56 µg/mL (≈ 4.57 µM).

`NC(=O)c1c(F)ccc(OCc2nc3cc(C(F)(F)F)cnc3s2)c1F` gave an MIC [34] of 2 µg/mL (≈ 5.14 µM).

For `CCOC(=O)c1c(CSc2ccccc2Br)nc2ccc(Br)cn12`, the Activity [1] was “inactive” and the inhibition at 10 µM [2] was 0%.
